According to PubChem BioAssay AID1549 (Sanford-Burnham Center for Chemical Genomics, 2009):
Calls of active or inactive are those of the source. The rule behind the calls is not given here.

Target: Influenza A virus M2 proton channel (A/TW/4845/1999 H1N1)
Assay: M2 proton channel binding, NMR based, influenza A virus H1N1 strain (AID 1549)
Details: NMR binding screen, M2 protein

Structure (SMILES)	Kd
CC(CCC(=O)O)[C@H]1CCC2C3CC[C@@H]4C[C@H](O)CC[C@]4(C)C3C[C@H](O)[C@@]21C (stereo partly specified)	> 4 mM (inactive)
O=C(Nc1ccon1)c1cc2c(s1)CCCC2	> 4 mM (inactive)
CSc1nc2cc(F)c(F)cc2n1C	> 4 mM (inactive)
COc1ccc(NC2=NCC(C)S2)cc1 (stereo unspecified)	> 4 mM (inactive)
O=c1c(O)cc([C@H]2Oc3cc(O)cc(O)c3C[C@H]2O)cc2c([C@H]3Oc4cc(O)cc(O)c4C[C@H]3O)cc(O)c(O)c12	> 4 mM (inactive)
COC(=O)c1cccc(N)c1	> 4 mM (inactive)
S=C(CN1CCCC1=S)N1CCOCC1	> 4 mM (inactive)
C/C(O)=c1/sc2cc(C)nc(=N)n2c1=O	> 4 mM (inactive)
CSc1nc(-c2ccccc2)ccc1C(N)=O	> 4 mM (inactive)
Cc1[nH]c(=O)[nH]c(=O)c1N1CCOCC1	> 4 mM (inactive)
NC(=O)CSc1ccc(-c2ccccc2)nn1	> 4 mM (inactive)
CNC(Cc1c[nH]c2ccccc12)C(=O)O (stereo unspecified)	> 4 mM (inactive)
Nc1cccnc1Oc1ccc(F)cc1F	> 4 mM (inactive)
NS(=O)(=O)c1ccc(N=Cc2cccs2)cc1	> 4 mM (inactive)
COc1ccc(-c2coc3cc(O)ccc3c2=O)cc1	> 4 mM (inactive)
O=C(c1ccccc1)c1ccc(N2CCNCC2)cc1	> 4 mM (inactive)
CC(=O)OC(C)(C)[C@@H]1Cc2cc3ccc(=O)oc3cc2O1	> 4 mM (inactive)
Nc1nncn1C(=O)c1c(Cl)cccc1Cl	> 4 mM (inactive)
Oc1ccccc1N1CCOCC1	> 4 mM (inactive)
CC(=O)Nc1cc(C(F)(F)F)ccc1N1CCOCC1	> 4 mM (inactive)
CCOC(=O)CC1NCCNC1=O (stereo unspecified)	> 4 mM (inactive)
Cc1cc(C(=O)N2CCOCC2)c(C)o1	> 4 mM (inactive)
CC(C)NC(=O)c1cc(-n2cnnc2)ccc1Cl	> 4 mM (inactive)
CC(=O)c1ccc[nH]1	> 4 mM (inactive)
Cn1c(O)c(/C=C2\C=CC=N2)c(=O)[nH]c1=O	> 4 mM (inactive)

Structure (SMILES)	Kd
Fc1ccc(NC2=NCCS2)cc1Cl	> 4 mM (inactive)
CCNC(=S)NS(=O)(=O)c1ccccc1	> 4 mM (inactive)
CN1C(=O)N(C)C2NC(=O)NC21 (stereo unspecified)	> 4 mM (inactive)
Cc1ccccc1-n1c(-c2ccncc2)n[nH]c1=S	> 4 mM (inactive)
NCc1ccc2occc2c1	> 4 mM (inactive)
CC(=O)Nc1cc(C(N)=O)cc(C(N)=O)c1	> 4 mM (inactive)
CCOc1cccc(C(=O)c2ccc(O)c(O)c2O)c1	> 4 mM (inactive)
Cc1ccccc1NS(=O)(=O)c1ccc(F)cc1	> 4 mM (inactive)
OCCOc1ccc(C2=NCCO2)cc1	> 4 mM (inactive)
COC(=O)C[C@@H]1C2(C)C(=O)[C@@H](CC3=C4CC(O)O[C@@H](c5ccoc5)[C@]4(C)CCC32)[C@H](O)C1(C)C (stereo partly specified)	> 4 mM (inactive)
CC(=O)OCC[C@H](C)CCC=C(C)C	> 4 mM (inactive)
Nc1ccc(CCC(=O)O)cc1	> 4 mM (inactive)
Cc1ccc2cccc(OC(=O)N3CCCC3)c2n1	> 4 mM (inactive)
OCc1ccc2c(c1)OCCCO2	> 4 mM (inactive)
O=C(O[C@@H]1Cc2c(O)cc(O)cc2O[C@@H]1c1cc(O)c(O)c(O)c1)c1cc(O)c(O)c(O)c1	> 4 mM (inactive)
COC(=O)NNc1ncnc(N)c1[N+](=O)[O-]	> 4 mM (inactive)
O=C1CSC(=NC(=O)c2ccccc2)N1	> 4 mM (inactive)
CCCn1c(S(=O)(=O)O)nc2ccccc21	> 4 mM (inactive)
CCC(=O)n1nc(-c2ccco2)nc1N	> 4 mM (inactive)
COCCn1cnc2cc(C)c(C)cc21	> 4 mM (inactive)
Nc1nc(SCc2ccccc2)ns1	> 4 mM (inactive)
CSc1ccccc1NC(=O)c1ccco1	> 4 mM (inactive)
CN=C(c1ccc([N+](=O)[O-])cc1)N(C)C	> 4 mM (inactive)
CC(C)(C)NC(=O)CN1C(=O)c2ccccc2S1(=O)=O	> 4 mM (inactive)
O=C(O)C1=Cc2ccccc2OC1	> 4 mM (inactive)

Structure (SMILES)	Kd
NC(=O)c1cn(-c2ccccc2)nc1-c1cccnc1	> 4 mM (inactive)
C=C1CCC2[C@](C)(CO)[C@H](O)CC[C@@]2(C)[C@@H]1C/C=C1/C(=O)OC[C@H]1O (stereo partly specified)	> 4 mM (inactive)
NCc1csc2ccccc12	> 4 mM (inactive)
N#Cc1nc(-c2ccccc2Cl)oc1N1CCOCC1	> 4 mM (inactive)
Cc1cccn2cc(CNc3ccccc3)nc12	> 4 mM (inactive)
Cc1cc(=O)n(C(N)=S)[nH]1	> 4 mM (inactive)
O=C(O)C1Cc2c([nH]c3ccccc23)CN1 (stereo unspecified)	> 4 mM (inactive)
CNC(=O)C1COc2ccccc2O1 (stereo unspecified)	> 4 mM (inactive)
CC1SC(=NC(=O)c2ccncc2)NC1=O (stereo unspecified)	> 4 mM (inactive)
C[C@]12CCC3C(CC[C@]4(O)C[C@@H](O)CC[C@]34C=O)[C@@]1(O)CCC2C1=CC(=O)OC1 (stereo partly specified)	> 4 mM (inactive)
NC12CC3CC(C1)CC(O)(C3)C2	> 4 mM (inactive)
COc1c(O)cc(O)cc1O	> 4 mM (inactive)
CN1C(=O)c2ccc(N3CCCC3)cc2C1=O	> 4 mM (inactive)
C[N+](C)(C)CC(O)CC(=O)O (stereo unspecified)	> 4 mM (inactive)
COc1ccccc1-c1c(C)nn2c(C)c(C(C)=O)cnc12	> 4 mM (inactive)
O=C(c1nc2ncccn2n1)N1CCc2ccccc2C1	> 4 mM (inactive)
O=C(O)C(Cc1cnc[nH]1)N1C(=O)c2ccccc2C1=O (stereo unspecified)	> 4 mM (inactive)
O=C1CC(=O)N(c2ccccc2)c2ccccc21	> 4 mM (inactive)
CC(C)CC(=O)Nc1c[nH]c(=O)[nH]c1=O	> 4 mM (inactive)
O=C1NC(=O)C(Cc2cccs2)C(=O)N1	> 4 mM (inactive)
CC(C)[C@@H]1CC[C@@H](C)C[C@H]1O	> 4 mM (inactive)
O=c1oc2c(O)c(O)cc3c(=O)oc4c(O)c(O)cc1c4c23	> 4 mM (inactive)
NC12CC3CC(C1)CC(C(=O)O)(C3)C2	> 4 mM (inactive)
Nc1ccc(S(=O)(=O)N2CCCCC2)cc1	> 4 mM (inactive)
CC(=O)N1CCC(NC2CCCCCC2)CC1	> 4 mM (inactive)

Structure (SMILES)	Kd
Cc1ccccc1NC(=O)CC1NCCNC1=O (stereo unspecified)	> 4 mM (inactive)
Cn1c(=O)c2c(ncn2CCNC2=NCCC2)n(C)c1=O	> 4 mM (inactive)
O=C(O)C1Cc2ccccc2N1 (stereo unspecified)	> 4 mM (inactive)
CCOC(=O)c1c(C)nc2cc(C)ccn12	> 4 mM (inactive)
NS(=O)(=O)c1ccc(NC(=O)C2CC2)cc1	> 4 mM (inactive)
Cc1ccc(CCC(N)=O)o1	> 4 mM (inactive)
NC(=O)Cn1nnc(-c2ccc(C(F)(F)F)cc2)n1	> 4 mM (inactive)
COC(=O)c1cc2cc(N)ccc2s1	> 4 mM (inactive)
O=C1Nc2ccccc2C1(O)Cc1ccncc1 (stereo unspecified)	> 4 mM (inactive)
NC1=NCc2ccccc21	> 4 mM (inactive)
Cc1ccc2nc(SCCC#N)nc(C)c2c1	> 4 mM (inactive)
O=c1cc(-c2ccccc2)oc2cc(O)c(O)c(O)c12	> 4 mM (inactive)
Cn1nc(-c2ccccc2)cc1N	> 4 mM (inactive)
COc1ccc(N/C(N)=N\c2nc(C)cc(C)n2)cc1	> 4 mM (inactive)
Cc1onc(-c2c(Cl)cccc2Cl)c1C(N)=O	> 4 mM (inactive)
COC(=O)c1cccc2cc[nH]c12	> 4 mM (inactive)
CC1(C)Cc2cccc(C(=O)O)c2O1	> 4 mM (inactive)
O=C(NCc1ccco1)c1cccc(F)c1	> 4 mM (inactive)
CC1CCc2cc(F)ccc2N1C(=O)c1ccc(=O)[nH]n1 (stereo unspecified)	> 4 mM (inactive)
CSc1cccc(NC(=O)c2c(Cl)cnn2C)c1	> 4 mM (inactive)
NC(=O)CSc1nc2[nH]ncc2c(=O)[nH]1	> 4 mM (inactive)
NC(=O)c1ccccc1NC(=O)C1CCCO1 (stereo unspecified)	> 4 mM (inactive)
Nc1[nH]c(=S)ncc1S(=O)(=O)c1ccccc1	> 4 mM (inactive)
CCCCCC(=O)Cc1cc(O)cc(O)c1C(=O)Oc1cc(CC(=O)CCCCC)c(C(=O)O)c(OC)c1	> 4 mM (inactive)
O=C1NC(=S)S/C1=C/c1ccncc1	> 4 mM (inactive)

Structure (SMILES)	Kd
N#Cc1cccc(Cn2nnc(-c3ccccc3)n2)c1	> 4 mM (inactive)
Cn1nc(-c2cccs2)cc1N	> 4 mM (inactive)
CN1C(=O)c2ccc(N=C3NC(=O)CS3)cc2C1=O	> 4 mM (inactive)
CCSc1nc2ccccc2n1CC(N)=O	> 4 mM (inactive)
Cn1c(=O)c2c(ncn2C)n(C)c1=O	> 4 mM (inactive)
CCOC(=O)Cn1cnc2sc3c(c2c1=O)CCC3	> 4 mM (inactive)
Cc1nc2ccccc2c(=O)[nH]1	> 4 mM (inactive)
CC(=O)Nc1nnc(-c2ccccc2)o1	> 4 mM (inactive)
COc1cc2c(cc1OC)C1(O)C(=O)c3ccc(O)c(C(=O)O)c3OC1CO2 (stereo unspecified)	> 4 mM (inactive)
O=c1cnnc(SCCc2ccccc2)[nH]1	> 4 mM (inactive)
COC(=O)c1cccc(Cn2nnc3ccccc3c2=O)c1	> 4 mM (inactive)
Cc1cc2c(N)cccc2nn1	> 4 mM (inactive)
Nc1ccc2c(c1)C(=O)OC2	> 4 mM (inactive)
O=C1CSC(=Nc2ccc(O)cc2)N1	> 4 mM (inactive)
CN(C)c1nc(N2CCOCC2)nc(N2CCOCC2)n1	> 4 mM (inactive)
O=c1[nH]c2ccccc2c(=O)n1CCCO	> 4 mM (inactive)
CCOC(=O)c1ccc2c(c1)nnn2C	> 4 mM (inactive)
CC(=O)Nc1sc(C)c(C)c1C(N)=O	> 4 mM (inactive)
C/C=C(\C)C(=O)OC1[C@@H]2C=C3C(CC[C@]4(C)C3CC(=O)O[C@H]4c3ccoc3)C(C)(C2=O)[C@@H](C(O)C(=O)OC)C1(C)C (stereo partly specified)	> 4 mM (inactive)
N#Cc1cnc(N2CCCCC2)nc1N	> 4 mM (inactive)
CC(=O)O[C@H]1C[C@@H](OC(C)=O)C(C)(C)C2CC(=O)[C@]3(C)C(CC[C@@]4(C)[C@H](c5ccoc5)OC(=O)[C@H]5O[C@]543)[C@]21C (stereo partly specified)	> 4 mM (inactive)
